Patent publication US10842868B2 (priority 2012, dated 2020)

Key:
DT, TT, PT, FHA and 69K = type: physicochemical
[1] = type: physicochemical; details: K2 10, 50, 250 or 500 μg/ml; Al—H 3 mg/ml; all strengths
Description: Compound K2 is added to water at 4mg/ml, then 1M NaOH is added to ensure full solubilisation, with stirring for 15 minutes at room temperature. This material is added to a suspension of aluminium hydroxide adjuvant (Al—H) to give the desired final concentration. This mixture is shaken for 2 hours at ambient temperature to ensure full adsorption, and then histidine buffer components are added (10mM histidine buffer, pH 6.5).
Four different mixtures are prepared, giving a final K2 concentration of 10, 50, 250 or 500 μg/ml (to provide a 1, 5, 25 or 50 μg dose of K2 in a 100 μl dosage volume); the Al—H concentration is always 3 mg/ml. At all strengths >95% of compound K2 is adsorbed to the Al—H. The adsorbed adjuvant is referred to hereafter as “Al—H/K2”.

Cc1cc(OCCOCCOCCP(=O)(O)O)ccc1CCc1cnc2c(N)nc3cc(CCC(=O)O)ccc3c2c1 [K2, 3-(5-amino-2-(2-methyl-4-(2-(2-(2-phosphonoethoxy)ethoxy)ethoxy)phenethyl)benzo [f]-[1,7]naphthyridin-8-yl)propanoic acid]
adsorption of all antigens (DT, TT, PT, FHA and 69K): completely adsorbed
compound K2 adsorbed to the Al—H [1]: > 95%
